The source of these data is article PMC12752606, “METTL10‐Mediated PIAS3 Methylation Links Purine Metabolism to Gastric Cancer Progression” (Advanced Science, 2025).

Each structure is given as a SMILES string.

The assay relates to MKN45 and AGS cells. As to the kind of experiment: Colony formation assay. The format is cell-based. The conditions noted are these: 10 and 20 µM. As to the method:
Cells (1000 cells/well) were seeded in six‐well plates and provided with fresh culture medium every 3 days. After 14 days of incubation, the medium was removed, and the cells were gently washed three times with room‐temperature PBS. The cells were then fixed with 1 mL of 4% paraformaldehyde per well for 15 min. Next, 1 mL of 0.1% crystal violet solution was added to each well and incubated for 10 min to stain the cells. The crystal violet solution was drained, and the wells were rinsed with running water to remove excess stain, followed by air drying and photography.

As for `Cc1ccc(Nc2ncc3c(n2)N(C)C(=O)N(c2cccc(N)c2)C3)cn1` [LZQ-02-023-01, Three‐(3‐aminophenyl)‐1‐methyl‐7‐((6‐methylpyridin‐3‐yl)amino)‐3,4‐dihydropyrimido [4,5‐d] pyrimidin‐2 (1H)‐one], the “GC cell proliferation (colony formation)” value is recorded as “significantly inhibited”.
